One data set has as its target T1, SARS-CoV-2 spike protein (Severe acute respiratory syndrome coronavirus 2, UniProt P0DTC2).
T1 construct: purchased Biosource, Muskego, WI, USA
Briefly: biochemical. Conditions: read-out: remaining activity % of SARS-CoV-2 spike proteins; for remaining activity at 0.1 µM: tested concentration 100 nM; for remaining activity at 0.2 µM: tested concentration 200 nM; for remaining activity at 0.5 µM: tested concentration 500 nM; for remaining activity at 0.75 µM: tested concentration 750 nM; for remaining activity at 1 µM: tested concentration 1000 nM. The class given is binding.

Data set [1] has as its system SARS-CoV-2. Briefly: microbe, parasite or virus in culture. The class given is cell-based. Conditions: for EC50: Severe acute respiratory syndrome coronavirus 2, Vero C1008.
The test system of the next data set is IL-6. The data set can be described thus: Proinflammatory cytokine production (ELISA) in infected cells. The class given is cell-based. Conditions: infected cells treated with compound vs infected untreated.
Another data set relates to IL-1β. Described as above. The class given is cell-based. Conditions: infected cells treated with compound vs infected untreated.
The next data set can be described thus: in vitro. Conditions: African green monkey.
Data set [2] concerns SARS-CoV-2. The settings on record: cited from earlier work.

Each structure is given as a SMILES string. Values after ≈ are worked out from the molar mass of the structure shown.

By remaining activity is commonly meant the signal under treatment as a percentage of the control signal. A word on the EC50: it is the concentration that produces a half-maximal response. Turning to `Cc1onc(NS(=O)(=O)c2ccc(-n3cc(CSc4nc5ccccc5n4Cc4cn(-c5ccc(S(=O)(=O)Nc6noc(C)c6C)cc5)nn4)nn3)cc2)c1C` [compound 9], at SARS-CoV-2 spike protein, the remaining activity at 0.1 µM was 67.1%, the remaining activity at 0.2 µM came to 32.7%, the remaining activity at 0.5 µM turned out to be 11.4% and the remaining activity at 0.75 µM turned out to be 12%. Moreover, the remaining activity at 1 µM at SARS-CoV-2 spike protein came to 5%. It took 80.4 µg/mL (≈ 98.9 µM) to reach a half-maximal effect with SARS-CoV-2 [1] (EC50). Further, the “IL-6 protein expression level” value with IL-6 was “noticeably reduced”. Also, the “IL-1β protein expression level” value in the data set on IL-1β is “noticeably reduced”. Moreover, in the data set “in vitro”, the CC50 turned out to be 1030 µg/mL (≈ 1260 µM).
Turning to `Cc1ccc2nc(NC(=O)Cn3cc(CN4C(=O)C(=O)c5ccccc54)nn3)sc2c1` [compound 12], on SARS-CoV-2 spike protein, the remaining activity at 0.1 µM amounted to 95.9%, the remaining activity at 0.2 µM was 92.5%, the remaining activity at 0.5 µM was 82% and the remaining activity at 0.75 µM was 82%. Also, the remaining activity at 1 µM on SARS-CoV-2 spike protein came to 70%. Moreover, in the data set with SARS-CoV-2 [1], the “Selectivity Index (SI)” value turned out to be 0.87 and a half-maximal effect (EC50) was put at 382 µg/mL (≈ 882 µM). Further, the CC50 in the data set “in vitro” is 332 µg/mL (≈ 767 µM).
Regarding `O=C(Cn1cc(CSc2nc3ccccc3n2Cc2cn(CC(=O)NNC(=S)Nc3ccccc3)nn2)nn1)NNC(=S)Nc1ccccc1` [compound 4], at SARS-CoV-2 spike protein, the remaining activity at 0.1 µM is 74.6%, the remaining activity at 0.2 µM worked out at 46%, the remaining activity at 0.5 µM came out at 21.9% and the remaining activity at 0.75 µM came to 20%. Also, the remaining activity at 1 µM at SARS-CoV-2 spike protein is 18%. In the data set on SARS-CoV-2 [1], the “Selectivity Index (SI)” value stood at 10.90 and a half-maximal effect (EC50) was put at 174 µg/mL (≈ 240 µM). The molecule also showed a CC50 in the data set “in vitro” of 1900 µg/mL (≈ 2610 µM).
Regarding `CC(C)(O/N=C(\C(=O)N[C@@H]1C(=O)N2C(C(=O)[O-])=C(C[n+]3ccccc3)CS[C@H]12)c1csc(N)n1)C(=O)O` [Ceftazidime, ceftazidime, reference compound], at SARS-CoV-2 spike protein, the remaining activity at 0.1 µM is 99%, the remaining activity at 0.2 µM came to 79%, the remaining activity at 0.5 µM came out at 59% and the remaining activity at 0.75 µM amounted to 55.1%. Moreover, the remaining activity at 1 µM on SARS-CoV-2 spike protein worked out at 45.2%. In addition, in the data set with SARS-CoV-2 [1], the “Selectivity Index (SI)” value worked out at 12.29 and a half-maximal response (EC50) required 85.1 µg/mL (≈ 156 µM). Besides, the CC50 in “in vitro” is 1050 µg/mL (≈ 1910 µM).
For `Nn1c(Cn2cc(CSc3nc4ccccc4n3Cc3cn(Cc4n[nH]c(=S)n4N)nn3)nn2)n[nH]c1=S` [compound 7], on SARS-CoV-2 spike protein, the remaining activity at 0.1 µM is 86.1%, the remaining activity at 0.2 µM came to 77.2%, the remaining activity at 0.5 µM is 58.6% and the remaining activity at 0.75 µM was 44%. The remaining activity at 1 µM on SARS-CoV-2 spike protein amounted to 40%. Besides, in the data set with SARS-CoV-2 [1], the “Selectivity Index (SI)” value is 5.0 and a half-maximal response (EC50) required 306 µg/mL (≈ 538 µM). Further, in “in vitro”, the CC50 is 1530 µg/mL (≈ 2690 µM).
For the molecule `O=C(Cn1cc(CSc2nc3ccccc3n2Cc2cn(CC(=O)NNC(=S)Nc3ccc(F)cc3)nn2)nn1)NNC(=S)Nc1ccc(F)cc1` [compound 5], at SARS-CoV-2 spike protein, the remaining activity at 0.1 µM stood at 83.8%, the remaining activity at 0.2 µM was 70.2%, the remaining activity at 0.5 µM stood at 45.8% and the remaining activity at 0.75 µM was found to be 32%. Also, the remaining activity at 1 µM on SARS-CoV-2 spike protein is 26%. Moreover, in the data set with SARS-CoV-2 [1], the “Selectivity Index (SI)” value came to 8.82 and the EC50 worked out at 231 µg/mL (≈ 303 µM). Also, the CC50 in the data set “in vitro” is 2040 µg/mL (≈ 2670 µM).
As to `S=c1[nH]nc(Cn2cc(CSc3nc4ccccc4n3Cc3cn(Cc4n[nH]c(=S)n4-c4ccccc4)nn3)nn2)n1-c1ccccc1` [compound 6], on SARS-CoV-2 spike protein, the remaining activity at 0.1 µM came out at 79.9%, the remaining activity at 0.2 µM was determined as 65.4%, the remaining activity at 0.5 µM amounted to 38.2% and the remaining activity at 0.75 µM came out at 27%. The remaining activity at 1 µM on SARS-CoV-2 spike protein was found to be 20%. For the same molecule, in the data set with SARS-CoV-2 [1], the “Selectivity Index (SI)” value was 6.87 and the EC50 was determined as 155 µg/mL (≈ 224 µM). In “in vitro”, this molecule came in with a CC50 of 1070 µg/mL (≈ 1540 µM).
Turning to `COc1ccc(-n2cc(CCOc3cc(C(F)(F)F)nc4ccc(F)cc34)nn2)cc1` [12c, 6-fluoro-4-(2-(1-(4-methoxyphenyl)-1H-1,2,3-triazol-4-yl)ethoxy)-2-(trifluoromethyl)quinoline], the “antiviral activity against SARS-CoV-2” value in the data set on SARS-CoV-2 [2] is given as “high antiviral activity”.
`Fc1ccc2nc(C(F)(F)F)cc(OCc3cn(-c4ccccc4Cl)nn3)c2c1` [10 g, 4-((1-(2-chlorophenyl)-1H-1,2,3-triazol-4-yl)methoxy)-6-fluoro-2-(trifluoromethyl)quinoline]: the “antiviral activity against SARS-CoV-2” value in the data set on SARS-CoV-2 [2] is listed as “high antiviral activity”.
